Source: ChEMBL document CHEMBL1201862, “PubChem BioAssay data set” (2004)
The source made the active and inactive calls.

How the values were obtained:
[1] = biological target: Peroxisome proliferator-activated receptor gamma/Nuclear receptor coactivator 2 (Homo sapiens, UniProt P37231); format: functional;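 note: agonist potency for raising coactivator recruitment to the receptor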
[2] = biological target: Peroxisome proliferator-activated receptor gamma/Nuclear receptor coactivator 1 (Homo sapiens, UniProt P37231); format: functional;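 note: agonist potency as compounds enhance coactivator SRC-1 recruitment to PPARgamma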
[3] = biological target: Peroxisome proliferator-activated receptor gamma/Nuclear receptor coactivator 3 (Homo sapiens, UniProt P37231); format: functional;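 note: agonist potency for raising coactivator recruitment to the receptor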
[4] = biological target: T1, Calpain-2 catalytic subunit (Sus scrofa, UniProt P43367); test: m-calpain protease blockers, concentration series – biochemical, fluorogenic peptide substrate, dose response (AID 1420); format: functional
T1 sequence (P43367 whole entry): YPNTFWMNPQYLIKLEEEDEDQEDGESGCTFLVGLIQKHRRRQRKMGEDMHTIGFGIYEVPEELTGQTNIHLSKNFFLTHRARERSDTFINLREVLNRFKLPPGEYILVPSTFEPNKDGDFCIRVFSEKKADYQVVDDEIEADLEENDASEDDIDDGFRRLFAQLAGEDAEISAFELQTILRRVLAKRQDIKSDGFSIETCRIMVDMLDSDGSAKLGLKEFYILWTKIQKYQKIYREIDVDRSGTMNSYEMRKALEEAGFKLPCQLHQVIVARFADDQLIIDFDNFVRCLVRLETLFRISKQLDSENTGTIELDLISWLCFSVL

[5] = biological target: Eukaryotic translation initiation factor 4E (Mus musculus, UniProt P63073); test: blockers of eIF4G binding by eIF4E – biochemical, TR-FRET, dose response (AID 855); format: functional;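 note: potency for disrupting eIF4E binding to eIF4GI seen as loss of FRET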
Leucine aminopeptidase = biological target: T2, Leucine aminopeptidase (Plasmodium falciparum 3D7, UniProt Q8IL11); test: P. falciparum M17LAP inhibitors, primary screen, biochemical, fluorogenic H-Leu-NHMec substrate, 1536-well (AID 1619); format: functional
T2 sequence (Q8IL11 whole entry): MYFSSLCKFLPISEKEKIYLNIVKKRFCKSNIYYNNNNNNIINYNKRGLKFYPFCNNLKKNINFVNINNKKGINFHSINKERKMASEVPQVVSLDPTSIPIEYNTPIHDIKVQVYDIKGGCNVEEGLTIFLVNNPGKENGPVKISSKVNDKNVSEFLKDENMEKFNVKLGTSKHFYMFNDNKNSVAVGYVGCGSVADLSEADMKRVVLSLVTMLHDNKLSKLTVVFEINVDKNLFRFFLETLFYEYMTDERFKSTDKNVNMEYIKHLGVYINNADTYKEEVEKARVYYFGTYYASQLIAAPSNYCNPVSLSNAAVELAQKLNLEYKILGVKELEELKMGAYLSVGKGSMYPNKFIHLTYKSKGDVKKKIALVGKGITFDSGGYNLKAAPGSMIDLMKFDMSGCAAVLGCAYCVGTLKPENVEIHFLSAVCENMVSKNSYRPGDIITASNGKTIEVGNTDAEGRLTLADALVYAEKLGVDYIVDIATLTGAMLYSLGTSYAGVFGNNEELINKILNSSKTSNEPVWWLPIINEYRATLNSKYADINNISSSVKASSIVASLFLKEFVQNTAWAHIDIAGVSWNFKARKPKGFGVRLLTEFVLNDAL

Aminopeptidase N = biological target: T3, Aminopeptidase N (Plasmodium falciparum FcB1/Columbia, UniProt O96935); test: malaria alanyl aminopeptidase activity blockers – biochemical, fluorogenic H-Leu-NHMec substrate, 1536-well (AID 1445); design: species or system Plasmodium falciparum 3D7, 3D7
T3 sequence (O96935 whole entry): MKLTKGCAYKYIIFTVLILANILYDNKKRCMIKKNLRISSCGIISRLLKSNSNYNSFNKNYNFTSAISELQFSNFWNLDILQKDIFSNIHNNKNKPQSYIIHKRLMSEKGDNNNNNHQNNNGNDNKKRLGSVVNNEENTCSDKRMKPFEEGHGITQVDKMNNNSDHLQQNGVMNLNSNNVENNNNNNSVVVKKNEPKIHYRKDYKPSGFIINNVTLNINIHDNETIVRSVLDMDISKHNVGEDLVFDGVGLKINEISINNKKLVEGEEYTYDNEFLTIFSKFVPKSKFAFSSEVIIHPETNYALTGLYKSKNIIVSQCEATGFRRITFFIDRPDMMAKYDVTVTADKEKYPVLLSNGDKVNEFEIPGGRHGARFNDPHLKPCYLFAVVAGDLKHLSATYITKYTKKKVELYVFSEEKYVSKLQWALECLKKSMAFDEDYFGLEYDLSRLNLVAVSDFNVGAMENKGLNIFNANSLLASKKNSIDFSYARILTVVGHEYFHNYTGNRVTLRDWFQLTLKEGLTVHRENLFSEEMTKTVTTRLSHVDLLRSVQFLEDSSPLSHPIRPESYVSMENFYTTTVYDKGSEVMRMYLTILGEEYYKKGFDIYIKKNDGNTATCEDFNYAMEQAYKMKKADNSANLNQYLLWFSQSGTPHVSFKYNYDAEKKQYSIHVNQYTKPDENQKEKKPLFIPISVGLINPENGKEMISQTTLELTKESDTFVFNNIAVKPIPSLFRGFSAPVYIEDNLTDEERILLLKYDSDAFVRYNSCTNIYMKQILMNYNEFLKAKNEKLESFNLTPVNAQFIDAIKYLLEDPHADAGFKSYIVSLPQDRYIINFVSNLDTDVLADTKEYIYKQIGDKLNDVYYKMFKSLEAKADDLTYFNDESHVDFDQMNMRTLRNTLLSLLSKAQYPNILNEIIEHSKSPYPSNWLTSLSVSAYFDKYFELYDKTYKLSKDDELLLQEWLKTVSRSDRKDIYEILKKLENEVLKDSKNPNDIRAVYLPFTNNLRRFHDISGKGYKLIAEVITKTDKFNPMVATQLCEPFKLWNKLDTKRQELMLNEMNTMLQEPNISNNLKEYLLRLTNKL

[6] = microbe, parasite or virus in culture; format: functional; conditions: Mycobacterium tuberculosis
[7] = biological target: Tyrosine-protein phosphatase non-receptor type 7 (Homo sapiens, UniProt P35236); test: Dose Response confirmation of compounds that inhibit HePTP. [Related pubchem assays (depositor defined):AID1059, AID1661, AID2085]; format: functional
[8] = biological target: Dual specificity protein phosphatase 3 (Homo sapiens, UniProt P51452); test: Dose Response Confirmation of compounds that inhibit VHR1 in Fluorescent Assay. [Related pubchem assays (depositor defined):AID1661, AID1878]; format: functional
Sequence of Dual specificity protein phosphatase 3 (P51452 whole entry): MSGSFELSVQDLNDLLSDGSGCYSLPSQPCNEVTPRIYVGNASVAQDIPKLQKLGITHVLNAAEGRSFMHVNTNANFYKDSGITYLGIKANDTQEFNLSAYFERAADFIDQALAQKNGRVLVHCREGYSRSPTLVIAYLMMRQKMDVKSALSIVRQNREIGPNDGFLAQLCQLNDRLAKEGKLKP

Sequence of Eukaryotic translation initiation factor 4E (P63073 whole entry): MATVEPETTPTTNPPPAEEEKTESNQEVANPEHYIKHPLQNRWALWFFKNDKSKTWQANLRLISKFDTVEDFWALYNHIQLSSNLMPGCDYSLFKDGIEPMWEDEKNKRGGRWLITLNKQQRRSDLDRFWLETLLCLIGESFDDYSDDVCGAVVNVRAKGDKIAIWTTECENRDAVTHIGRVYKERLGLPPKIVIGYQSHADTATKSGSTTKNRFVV
Sequence of Tyrosine-protein phosphatase non-receptor type 7 (P35236 whole entry): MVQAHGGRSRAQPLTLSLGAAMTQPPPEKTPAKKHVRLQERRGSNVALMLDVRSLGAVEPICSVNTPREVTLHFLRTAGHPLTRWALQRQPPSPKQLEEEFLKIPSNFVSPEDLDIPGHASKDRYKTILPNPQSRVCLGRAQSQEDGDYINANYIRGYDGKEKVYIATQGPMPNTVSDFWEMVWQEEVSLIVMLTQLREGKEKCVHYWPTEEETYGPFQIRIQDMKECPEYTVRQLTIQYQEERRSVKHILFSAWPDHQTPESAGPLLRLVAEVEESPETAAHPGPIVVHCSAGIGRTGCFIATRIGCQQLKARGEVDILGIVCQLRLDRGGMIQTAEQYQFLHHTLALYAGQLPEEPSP
Sequence of Peroxisome proliferator-activated receptor gamma/Nuclear receptor coactivator 3 (P37231 whole entry): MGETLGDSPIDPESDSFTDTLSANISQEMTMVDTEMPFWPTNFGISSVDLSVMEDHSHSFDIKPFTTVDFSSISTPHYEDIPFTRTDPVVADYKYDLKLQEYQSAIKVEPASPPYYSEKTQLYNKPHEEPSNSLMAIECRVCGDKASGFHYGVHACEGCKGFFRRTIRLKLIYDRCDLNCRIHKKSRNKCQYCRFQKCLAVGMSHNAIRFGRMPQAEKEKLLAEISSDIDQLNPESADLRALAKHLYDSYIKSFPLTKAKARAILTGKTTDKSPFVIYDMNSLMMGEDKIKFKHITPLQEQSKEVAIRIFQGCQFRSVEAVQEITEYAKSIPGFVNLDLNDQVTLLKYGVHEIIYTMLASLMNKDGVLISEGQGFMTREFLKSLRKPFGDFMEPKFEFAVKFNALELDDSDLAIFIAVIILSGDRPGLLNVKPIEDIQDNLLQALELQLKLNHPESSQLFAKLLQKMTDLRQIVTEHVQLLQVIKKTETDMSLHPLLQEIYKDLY
Sequence of Peroxisome proliferator-activated receptor gamma/Nuclear receptor coactivator 3 (Q9Y6Q9 whole entry, further chain): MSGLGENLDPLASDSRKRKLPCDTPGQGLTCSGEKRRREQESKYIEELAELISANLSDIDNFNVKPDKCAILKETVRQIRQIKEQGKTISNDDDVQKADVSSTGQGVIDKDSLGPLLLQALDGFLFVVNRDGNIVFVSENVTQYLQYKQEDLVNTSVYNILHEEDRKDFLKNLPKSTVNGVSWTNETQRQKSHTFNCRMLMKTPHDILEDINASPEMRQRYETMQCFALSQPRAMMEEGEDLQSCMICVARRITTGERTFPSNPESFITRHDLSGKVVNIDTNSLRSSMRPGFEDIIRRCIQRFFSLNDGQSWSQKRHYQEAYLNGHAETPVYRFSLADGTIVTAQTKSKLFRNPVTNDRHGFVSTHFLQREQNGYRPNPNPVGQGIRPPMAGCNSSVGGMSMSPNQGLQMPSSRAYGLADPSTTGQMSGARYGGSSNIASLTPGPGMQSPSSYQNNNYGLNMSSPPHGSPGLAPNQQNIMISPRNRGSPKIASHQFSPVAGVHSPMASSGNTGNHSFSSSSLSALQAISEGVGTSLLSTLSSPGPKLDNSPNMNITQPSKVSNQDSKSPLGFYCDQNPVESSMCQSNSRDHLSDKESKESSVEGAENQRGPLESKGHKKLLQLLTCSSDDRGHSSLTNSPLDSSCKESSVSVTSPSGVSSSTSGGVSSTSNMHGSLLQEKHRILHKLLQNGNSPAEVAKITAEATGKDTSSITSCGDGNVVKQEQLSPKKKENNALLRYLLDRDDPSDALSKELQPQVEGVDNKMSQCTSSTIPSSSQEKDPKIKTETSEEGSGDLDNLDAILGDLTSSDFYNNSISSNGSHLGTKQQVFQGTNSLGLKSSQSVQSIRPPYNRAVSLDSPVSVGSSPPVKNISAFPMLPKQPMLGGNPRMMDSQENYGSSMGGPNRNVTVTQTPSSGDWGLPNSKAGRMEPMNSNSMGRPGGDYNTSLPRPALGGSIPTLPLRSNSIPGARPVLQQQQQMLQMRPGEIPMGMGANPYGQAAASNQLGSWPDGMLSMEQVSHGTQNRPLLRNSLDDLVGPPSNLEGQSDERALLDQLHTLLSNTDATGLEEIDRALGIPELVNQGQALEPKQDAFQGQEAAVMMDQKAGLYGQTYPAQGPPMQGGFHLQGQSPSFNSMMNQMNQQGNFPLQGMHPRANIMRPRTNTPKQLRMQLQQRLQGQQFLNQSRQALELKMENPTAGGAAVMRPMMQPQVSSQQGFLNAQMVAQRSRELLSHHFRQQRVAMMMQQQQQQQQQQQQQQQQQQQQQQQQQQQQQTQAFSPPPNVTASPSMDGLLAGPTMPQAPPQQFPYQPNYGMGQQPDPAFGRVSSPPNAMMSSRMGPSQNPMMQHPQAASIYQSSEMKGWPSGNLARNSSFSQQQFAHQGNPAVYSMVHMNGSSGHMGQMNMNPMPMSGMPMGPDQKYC
Sequence of Peroxisome proliferator-activated receptor gamma/Nuclear receptor coactivator 1 (P37231 whole entry): as the sequence (P37231 whole entry) above
Sequence of Peroxisome proliferator-activated receptor gamma/Nuclear receptor coactivator 1 (Q15788 whole entry, further chain): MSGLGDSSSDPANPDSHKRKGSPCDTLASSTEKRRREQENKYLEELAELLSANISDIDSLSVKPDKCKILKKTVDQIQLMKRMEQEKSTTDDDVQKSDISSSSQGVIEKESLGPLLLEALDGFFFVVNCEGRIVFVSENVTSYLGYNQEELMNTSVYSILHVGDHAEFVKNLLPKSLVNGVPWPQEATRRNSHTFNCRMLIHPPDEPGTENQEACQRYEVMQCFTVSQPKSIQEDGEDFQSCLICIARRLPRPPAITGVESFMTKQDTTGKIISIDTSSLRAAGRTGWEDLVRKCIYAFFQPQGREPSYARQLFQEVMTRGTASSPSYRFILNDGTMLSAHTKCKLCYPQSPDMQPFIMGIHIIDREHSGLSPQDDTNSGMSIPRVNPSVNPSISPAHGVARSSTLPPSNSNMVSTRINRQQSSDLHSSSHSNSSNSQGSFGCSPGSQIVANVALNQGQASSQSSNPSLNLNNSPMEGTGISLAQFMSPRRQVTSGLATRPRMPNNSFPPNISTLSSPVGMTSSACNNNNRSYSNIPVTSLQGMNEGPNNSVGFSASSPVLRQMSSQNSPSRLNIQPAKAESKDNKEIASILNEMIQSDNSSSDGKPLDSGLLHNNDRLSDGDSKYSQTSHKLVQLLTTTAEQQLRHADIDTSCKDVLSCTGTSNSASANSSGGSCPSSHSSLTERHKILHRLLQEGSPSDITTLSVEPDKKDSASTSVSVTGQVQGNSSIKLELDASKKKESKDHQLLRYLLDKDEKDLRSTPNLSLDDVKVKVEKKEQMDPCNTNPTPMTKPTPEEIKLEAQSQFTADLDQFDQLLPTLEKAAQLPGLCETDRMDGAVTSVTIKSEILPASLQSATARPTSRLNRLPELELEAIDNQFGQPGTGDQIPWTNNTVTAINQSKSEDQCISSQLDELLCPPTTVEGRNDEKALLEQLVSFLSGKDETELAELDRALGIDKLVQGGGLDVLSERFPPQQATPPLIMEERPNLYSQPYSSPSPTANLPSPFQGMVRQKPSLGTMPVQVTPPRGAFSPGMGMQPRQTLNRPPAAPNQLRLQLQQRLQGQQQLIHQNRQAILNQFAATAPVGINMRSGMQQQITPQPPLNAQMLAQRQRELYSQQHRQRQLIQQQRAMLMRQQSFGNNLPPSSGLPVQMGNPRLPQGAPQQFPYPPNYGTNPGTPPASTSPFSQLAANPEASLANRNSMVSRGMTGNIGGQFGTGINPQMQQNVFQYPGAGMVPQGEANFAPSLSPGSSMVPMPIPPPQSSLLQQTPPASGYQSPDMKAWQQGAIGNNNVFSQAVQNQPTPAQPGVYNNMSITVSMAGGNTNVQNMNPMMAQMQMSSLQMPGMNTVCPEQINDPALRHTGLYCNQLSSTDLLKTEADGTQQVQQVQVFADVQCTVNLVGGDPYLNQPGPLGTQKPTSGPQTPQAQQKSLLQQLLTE

Row | SMILES | EC50 [1] | EC50 [2] | EC50 [3] | IC50 [4] | IC50 [5] | IC50 (Leucine aminopeptidase) | IC50 (Aminopeptidase N) | CC50 [6] | IC50 [7] | IC50 [8]
1 | NS(=O)(=O)c1ccc(NC(=S)NCc2ccc(Cl)cc2)cc1 | > 79.4 µM (not active) | > 79.4 µM (not active) | > 79.4 µM (not active) | 9.36 µM (not active) | > 64 µM (inactive) |  |  |  |  | 
2 | Cc1csc(NC(=O)CCCC(=O)O)c1-c1nc2ccccc2s1 |  |  |  |  |  | 35.4 µM (active) | 11.2 µM (active) | > 40 µM (active) | 3.28 µM (active) | 2.67 µM (active)
